# Laboratory results as given in PMC12364333, “Degradation of catecholate, hydroxamate, and carboxylate model siderophores by extracellular enzymes” (PLOS One, 2025).
# Test system: T1, phenol oxidase (a tyrosinase)
# T1 construct: gene PPO3
# Test: initial rates of product formation ([…] h); Lineweaver-Burk plot
# Assay type: biochemical, Agaricus bisporus
# Conditions: O2 as oxidant; buffered at pH 7.0 (25 mM phosphate) and 20 °C in the general protocol; 0.01-1 mM protochelin; apo siderophore
smiles,measurement,value
O=C(NCCCCNC(=O)[C@H](CCCCNC(=O)c1cccc(O)c1O)NC(=O)c1cccc(O)c1O)c1cccc(O)c1O [protochelin],Km,430 µM
